In patent publication US5141926A, “Erythromycin derivatives” (Abbott Laboratories, priority 1990, dated 1992):
≈ marks a conversion by molar mass, not a printed value. Like-named read-outs stand apart in the source and are kept apart here. One block for each molecule: values may come before it.

Key:
[1] = tested on: Enterococcus faecium ATCC 8043; test: Agar plate dilution MIC; type: cell-based
Protocol: (§1) 6-Deoxyerythromycins A, B and C and 6-deoxy-15-norerythromycin B were tested for antibacterial activity using a standard agar plate dilution method in brain heart infusion broth. Erythromycin A was utilized as a control.

Eschericha coli SS = test: Agar plate dilution MIC; type: cell-based; conditions: brain heart infusion broth
Protocol: as §1

Escherichia coli JUHL = test: Agar plate dilution MIC; type: cell-based
Protocol: as §1

[2] = tested on: Micrococcus luteus ATCC 9341; test: Agar plate dilution MIC; type: cell-based
Protocol: as §1

[3] = tested on: Staphylococcus aureus ATCC 6538P; test: Agar plate dilution MIC; type: cell-based; conditions: ATCC6538P
Protocol: as §1

[4] = tested on: Staphylococcus aureus CMX 553; test: Agar plate dilution MIC; type: cell-based
Protocol: as §1

[5] = tested on: Staphylococcus aureus NCTC 10649; test: Agar plate dilution MIC; type: cell-based
Protocol: as §1

[6] = tested on: Staphylococcus epidermis 3519; test: Agar plate dilution MIC; type: cell-based; conditions: brain heart infusion broth
Protocol: as §1

[7] = tested on: Streptococcus agalactiae CMX 508; test: Agar plate dilution MIC; type: cell-based
Protocol: as §1

[8] = tested on: Streptococcus pyogenes EES61; test: Agar plate dilution MIC; type: cell-based
Protocol: as §1

[9] = tested on: Staphylococcus aureus 10649; test: Acute mouse protection test; type: in vivo, female CF-1 mice; conditions: read-out: ED50 (Dose Providing 50% Survival)
Protocol: (§2) The in vivo activity of 6-deoxyerythromycin A was evaluated using the acute mouse protection test. Mouse mortality was used to calcualte an ED50 value, i.e., the dose of drug required to protect 50% of the test animals against death due to inoculum challenge.
(§3) The acute mouse protection test was conducted as described by Fernandes, et al. (Antimicrob. Agents Chemother. 29:201-208(1986)) on female CF-1 mice weighing 20-25 grams. The mice were injected intraperitoneally with bacterial suspensions at a concentration 100 times that producing an LD50 response. 6-Deoxyerythromycin A or erythromycin A were administered orally at 1 and 5 hours post-infection. The median effective doses for the cumulative mortalities on the sixth day after infection were calculated using a trimmed logit analysis (Hamilton, et. al., Environ Sci. Technol. 11:714-719 (1977)).

[10] = tested on: Streptococcus pneumoniae 6303; test: Acute mouse protection test; type: in vivo, female CF-1 mice; conditions: read-out: ED50 (Dose Providing 50% Survival)
Protocol: as §2, §3

[11] = tested on: Streptococcus pyogenes C203; test: Acute mouse protection test; type: in vivo, female CF-1 mice; conditions: read-out: ED50 (Dose Providing 50% Survival)
Protocol: as §2, §3

[12] = tested on: murine infections of Staphylococci and Streptococci; test: Acute mouse protection test, overall result; type: in vivo, female CF-1 mice; conditions: orally administered
Protocol: as §2, §3

physchem = conditions: citric acid solution, pH 2.2
Protocol: The relative acid stability of one of the compounds of the present invention was compared to that of erythromycin A. 11.8 mg of 6-deoxyerythromycin A was suspended in citric acid solution (pH 2.2) and allowed to remain at 37° C. for 8 hours. Aliquots were removed at 2, 5, 10, and 20 minutes and at 1, 2, 3, 4, 5, 6 and 8 hours. Degradation was quenced by adjusting each aliquot to pH 9.6 with 7.5 N NH4 OH, followed by extraction with methylene chloride.
10.5 mg of erythromycin A was identically suspended in critic acid solution (pH 2.0) and allowed to remain at 37° C. for 10 minutes. Aliquots were removed at 2, 5 and 10 minutes. Degradation was quenched by adjusting each aliquot to pH 9.6 with 7.5 N NH4 OH, followed by extraction with methylene chloride.

[13] = ATCC8043, Table 5, brain heart infusion broth, read-out: MIC value
[14] = Table 5, brain heart infusion broth
[15] = ATCC9341, Table 5, brain heart infusion broth, read-out: MIC value
[16] = Table 5, brain heart infusion broth, read-out: MIC value
[17] = CMX553, Table 5, brain heart infusion broth, read-out: MIC value
[18] = NCTC10649, Table 5, brain heart infusion broth, read-out: MIC value
[19] = Staphylococcus, 3519, Table 5, read-out: MIC value
[20] = CMX508, Table 5, brain heart infusion broth, read-out: MIC value
[21] = EES61, Table 5, brain heart infusion broth, read-out: MIC value
[22] = ATCC8043, Table 4, brain heart infusion broth, read-out: MIC value
[23] = Table 4, brain heart infusion broth
[24] = ATCC9341, Table 4, brain heart infusion broth, read-out: MIC value
[25] = Table 4, brain heart infusion broth, read-out: MIC value
[26] = CMX553, Table 4, brain heart infusion broth, read-out: MIC value
[27] = NCTC10649, Table 4, brain heart infusion broth, read-out: MIC value
[28] = Staphylococcus, 3519, Table 4, read-out: MIC value
[29] = CMX508, Table 4, brain heart infusion broth, read-out: MIC value
[30] = EES61, Table 4, brain heart infusion broth, read-out: MIC value

- MIC [1, 13]: 2 µg/mL (≈ 2.91 µM)
- MIC (Eschericha coli SS; Table 5): 2 µg/mL (≈ 2.91 µM)
- MIC (Escherichia coli JUHL; [14]): > 128 µg/mL
- MIC [2, 15]: 0.25 µg/mL (≈ 0.363 µM)
- MIC [3, 16]: 2 µg/mL (≈ 2.91 µM)
- MIC [4, 17]: 2 µg/mL (≈ 2.91 µM)
- MIC [5, 18]: 2 µg/mL (≈ 2.91 µM)
- MIC [6, 19]: 2 µg/mL (≈ 2.91 µM)
- MIC [7, 20]: 0.5 µg/mL (≈ 0.727 µM)
- MIC [8, 21]: 0.25 µg/mL (≈ 0.363 µM)
SMILES: CO[C@]1(C)C[C@H](O[C@H]2[C@H](C)[C@@H](O[C@@H]3O[C@H](C)C[C@H](N(C)C)[C@H]3O)[C@@H](C)C[C@@H](C)C(=O)[C@H](C)[C@@H](O)[C@@H](C)[C@@H](C)OC(=O)[C@@H]2C)O[C@@H](C)[C@@H]1O [6-Deoxy-15-norerythromycin B]

SMILES: CC[C@H]1OC(=O)[C@H](C)[C@@H](O[C@H]2C[C@@](C)(OC)[C@@H](O)[C@H](C)O2)[C@H](C)[C@@H](O[C@@H]2O[C@H](C)C[C@H](N(C)C)[C@H]2O)[C@@H](C)C[C@@H](C)C(=O)[C@H](C)[C@@H](O)[C@]1(C)O [6-Deoxyerythromycin A]
- MIC [1, 22]: 0.25 µg/mL (≈ 0.348 µM)
- MIC (Eschericha coli SS; Table 4): 2 µg/mL (≈ 2.79 µM)
- MIC (Escherichia coli JUHL; [23]): > 128 µg/mL
- MIC [2, 24]: 0.06 µg/mL (≈ 0.0836 µM)
- MIC [3, 25]: 1 µg/mL (≈ 1.39 µM)
- MIC [4, 26]: 0.5 µg/mL (≈ 0.696 µM)
- MIC [5, 27]: 1 µg/mL (≈ 1.39 µM)
- MIC [6, 28]: 1 µg/mL (≈ 1.39 µM)
- MIC [7, 29]: 0.12 µg/mL (≈ 0.167 µM)
- MIC [8, 30]: 0.25 µg/mL (≈ 0.348 µM)
- ED50 ([9]; Staphylococcus aureus, 10649, 144 h, oral, 1 and 5 hours post-infection, intraperitoneal inoculum 100 times LD50, mortality on sixth day): 90.8 mg/kg
- ED50 ([10]; Streptococcus pneumoniae, 6303, 144 h, oral, 1 and 5 hours post-infection, intraperitoneal inoculum 100 times LD50, mortality on sixth day): 24.9 mg/kg
- ED50 ([11]; C203, 144 h, oral, 1 and 5 hours post-infection, intraperitoneal inoculum 100 times LD50, mortality on sixth day): 32.4 mg/kg
- effectiveness compared with erythromycin A [12]: as effective as erythromycin A
- remaining at 4 h (physchem): > 50%
- remaining at 8 h (physchem): ~40%

- MIC [1, 13]: 0.5 µg/mL (≈ 0.712 µM)
- MIC (Eschericha coli SS; Table 5): 4 µg/mL (≈ 5.7 µM)
- MIC (Escherichia coli JUHL; [14]): > 128 µg/mL
- MIC [2, 15]: 0.12 µg/mL (≈ 0.171 µM)
- MIC [3, 16]: 1 µg/mL (≈ 1.42 µM)
- MIC [4, 17]: 1 µg/mL (≈ 1.42 µM)
- MIC [5, 18]: 1 µg/mL (≈ 1.42 µM)
- MIC [6, 19]: 1 µg/mL (≈ 1.42 µM)
- MIC [7, 20]: 0.25 µg/mL (≈ 0.356 µM)
- MIC [8, 21]: 0.12 µg/mL (≈ 0.171 µM)
SMILES: CC[C@H]1OC(=O)[C@H](C)[C@@H](O[C@H]2C[C@@](C)(OC)[C@@H](O)[C@H](C)O2)[C@H](C)[C@@H](O[C@@H]2O[C@H](C)C[C@H](N(C)C)[C@H]2O)[C@@H](C)C[C@@H](C)C(=O)[C@H](C)[C@@H](O)[C@H]1C [6-Deoxyerythromycin B]

- MIC [1, 22]: 0.25 µg/mL (≈ 0.355 µM)
- MIC (Eschericha coli SS; Table 4): 16 µg/mL (≈ 22.7 µM)
- MIC (Escherichia coli JUHL; [23]): > 128 µg/mL
- MIC [2, 24]: 0.25 µg/mL (≈ 0.355 µM)
- MIC [3, 25]: 2 µg/mL (≈ 2.84 µM)
- MIC [4, 26]: 4 µg/mL (≈ 5.68 µM)
- MIC [5, 27]: 2 µg/mL (≈ 2.84 µM)
- MIC [6, 28]: 4 µg/mL (≈ 5.68 µM)
- MIC [7, 29]: 0.25 µg/mL (≈ 0.355 µM)
- MIC [8, 30]: 0.5 µg/mL (≈ 0.71 µM)
SMILES: CC[C@H]1OC(=O)[C@H](C)[C@@H](O[C@H]2C[C@@](C)(O)[C@@H](O)[C@H](C)O2)[C@H](C)[C@@H](O[C@@H]2O[C@H](C)C[C@H](N(C)C)[C@H]2O)[C@@H](C)C[C@@H](C)C(=O)[C@H](C)[C@@H](O)[C@]1(C)O [6-Deoxyerythromycin C]

SMILES: CC[C@H]1OC(=O)[C@H](C)[C@@H](O[C@H]2C[C@@](C)(OC)[C@@H](O)[C@H](C)O2)[C@H](C)[C@@H](O[C@@H]2O[C@H](C)C[C@H](N(C)C)[C@H]2O)[C@](C)(O)C[C@@H](C)C(=O)[C@H](C)[C@@H](O)[C@]1(C)O [Erythromycin A, reference compound]
- MIC ([1]; ATCC8043, read-out: MIC value, Table 4, brain heart infusion broth): 0.12 µg/mL (≈ 0.164 µM)
- MIC ([1]; ATCC8043, read-out: MIC value, Table 5, brain heart infusion broth): 0.06 µg/mL (≈ 0.0818 µM)
- MIC (Eschericha coli SS; Table 4): 1 µg/mL (≈ 1.36 µM)
- MIC value (Eschericha coli SS; Table 5): 1 µg/mL (≈ 1.36 µM)
- MIC (Escherichia coli JUHL; [23]): 64 µg/mL (≈ 87.2 µM)
- MIC (Escherichia coli JUHL; [14]): 32 µg/mL (≈ 43.6 µM)
- MIC ([2]; ATCC9341, read-out: MIC value, Table 4, brain heart infusion broth): 0.03 µg/mL (≈ 0.0409 µM)
- MIC ([2]; ATCC9341, read-out: MIC value, Table 5, brain heart infusion broth): 0.015 µg/mL (≈ 0.0204 µM)
- MIC ([3]; read-out: MIC value, Table 4, brain heart infusion broth): 0.25 µg/mL (≈ 0.341 µM)
- MIC ([3]; read-out: MIC value, Table 5, brain heart infusion broth): 0.12 µg/mL (≈ 0.164 µM)
- MIC ([4]; CMX553, read-out: MIC value, Table 4, brain heart infusion broth): 0.25 µg/mL (≈ 0.341 µM)
- MIC ([4]; CMX553, read-out: MIC value, Table 5, brain heart infusion broth): 0.12 µg/mL (≈ 0.164 µM)
- MIC ([5]; NCTC10649, read-out: MIC value, Table 4, brain heart infusion broth): 0.25 µg/mL (≈ 0.341 µM)
- MIC ([5]; NCTC10649, read-out: MIC value, Table 5, brain heart infusion broth): 0.12 µg/mL (≈ 0.164 µM)
- MIC ([6]; Staphylococcus, 3519, read-out: MIC value, Table 4): 0.5 µg/mL (≈ 0.681 µM)
- MIC ([6]; Staphylococcus, 3519, read-out: MIC value, Table 5): 0.12 µg/mL (≈ 0.164 µM)
- MIC ([7]; CMX508, read-out: MIC value, Table 4, brain heart infusion broth): 0.06 µg/mL (≈ 0.0818 µM)
- MIC ([7]; CMX508, read-out: MIC value, Table 5, brain heart infusion broth): 0.03 µg/mL (≈ 0.0409 µM)
- MIC ([8]; EES61, read-out: MIC value, Table 4, brain heart infusion broth): 0.03 µg/mL (≈ 0.0409 µM)
- MIC ([8]; EES61, read-out: MIC value, Table 5, brain heart infusion broth): 0.015 µg/mL (≈ 0.0204 µM)
- ED50 ([9]; Staphylococcus aureus, 10649, po, 144 h): 120 mg/kg
- ED50 ([10]; Streptococcus pneumoniae, 6303, po, 144 h): 24.8 mg/kg
- ED50 ([11]; C203, po, 144 h): 54.5 mg/kg
- remaining at 2 min (physchem): < 10%

- MIC [1, 13]: 0.12 µg/mL (≈ 0.167 µM)
- MIC (Eschericha coli SS; Table 5): 2 µg/mL (≈ 2.79 µM)
- MIC (Escherichia coli JUHL; [14]): 32 µg/mL (≈ 44.6 µM)
- MIC [2, 15]: 0.03 µg/mL (≈ 0.0418 µM)
- MIC [3, 16]: 0.25 µg/mL (≈ 0.348 µM)
- MIC [4, 17]: 0.25 µg/mL (≈ 0.348 µM)
- MIC [5, 18]: 0.25 µg/mL (≈ 0.348 µM)
- MIC [6, 19]: 0.25 µg/mL (≈ 0.348 µM)
- MIC [7, 20]: 0.03 µg/mL (≈ 0.0418 µM)
- MIC [8, 21]: 0.03 µg/mL (≈ 0.0418 µM)
SMILES: CC[C@H]1OC(=O)[C@H](C)[C@@H](O[C@H]2C[C@@](C)(OC)[C@@H](O)[C@H](C)O2)[C@H](C)[C@@H](O[C@@H]2O[C@H](C)C[C@H](N(C)C)[C@H]2O)[C@](C)(O)C[C@@H](C)C(=O)[C@H](C)[C@@H](O)[C@H]1C [Erythromycin B, reference compound]
